Assays:
FAP^+ U-87 cells = test: Cytotoxicity assay (resazurin) in U-87 cells; format: cell-based; settings: single dose 1 µM, incubation time not stated
Description: In 96-well plates, U-87 cells (3 × 10^3) were seeded in each well and incubated at 37 °C and 5% CO2 for 24 h. The medium was removed and the wells were washed once with PBS. The cytotoxic drug (positive control) or the eFAP conjugate containing the drug were prepared at various concentrations (i.e., 1, 10, 100, 1000 nM) in DMEM culture medium, supplemented with 2 mM L-glutamine, 10% FBS, 50 units/mL penicillin, and 50 µg/mL streptomycin. Medium was used as a negative control. Cells were incubated with 100 µL of the tested compounds for 1, 24, 48, and 72 h. After incubation, medium was removed and each well was washed once with PBS. Next, 100 µL of 10% resazurin solution in culture medium was added to each well and incubated for 2.5 h. Fluorescence measurements were carried out using a microplate reader at 544 nm excitation and 590 nm emission.

[1] = LogD7.4 shake-flask method (n-octanol/PBS); format: physicochemical; settings: radiolabeled compound; n-octanol/PBS pH 7.4; triplicates
Description: Distribution coefficients (LogD7.4 values) were determined by a shake-flask method. Sample containing the ^203Pb-labeled compound was added to a vial containing 600 µL PBS (pH 7.4) and 600 µL n-octanol. The vial was vortexed vigorously and then centrifuged for 10 min for phase separation. Samples of the octanol (200 µL) and aqueous (200 µL) phases were taken and counted on a PerkinElmer WIZARD 2480 gamma counter. LogD7.4 value was calculated by using the equation: LogD7.4 = log [(counts in octanol phase)/(counts in aqueous phase)]. All the experiments were performed in triplicates.

FAP = target: T1, FAP (Homo sapiens, UniProt Q12884); test: In vitro inhibition assay on human FAP (Z-GP-AMC substrate); format: biochemical; settings: enzymatic assay; 20 µM Z-GP-AMC, 20 nM FAP; unit inferred
T1 sequence (Q12884 1-760): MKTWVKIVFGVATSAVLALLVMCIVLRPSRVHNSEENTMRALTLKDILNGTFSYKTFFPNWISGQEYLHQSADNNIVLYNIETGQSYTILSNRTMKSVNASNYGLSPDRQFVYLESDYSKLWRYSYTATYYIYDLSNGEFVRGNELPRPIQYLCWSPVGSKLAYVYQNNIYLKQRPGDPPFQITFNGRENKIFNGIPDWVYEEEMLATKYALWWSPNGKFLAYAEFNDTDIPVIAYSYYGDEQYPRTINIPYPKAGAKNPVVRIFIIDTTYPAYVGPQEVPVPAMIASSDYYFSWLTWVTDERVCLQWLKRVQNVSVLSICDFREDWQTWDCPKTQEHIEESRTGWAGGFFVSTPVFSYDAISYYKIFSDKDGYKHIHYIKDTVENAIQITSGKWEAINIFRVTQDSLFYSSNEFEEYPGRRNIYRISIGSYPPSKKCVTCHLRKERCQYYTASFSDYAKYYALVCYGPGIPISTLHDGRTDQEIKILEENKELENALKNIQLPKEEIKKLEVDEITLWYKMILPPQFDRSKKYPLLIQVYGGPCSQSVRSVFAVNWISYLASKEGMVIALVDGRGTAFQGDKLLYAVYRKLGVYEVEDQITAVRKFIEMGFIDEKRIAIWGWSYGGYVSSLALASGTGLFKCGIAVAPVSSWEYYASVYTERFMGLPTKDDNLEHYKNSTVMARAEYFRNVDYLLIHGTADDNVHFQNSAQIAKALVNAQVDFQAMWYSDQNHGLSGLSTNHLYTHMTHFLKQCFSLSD
Description: Enzymatic activity of human FAP (hFAP) and mouse FAP (mFAP) on the Z-GP-AMC substrate was measured at room temperature on a Hidex microplate reader by monitoring the fluorescence at an excitation wavelength of 360 nm and an emission wavelength of 465 nm. The reaction mixture contained 20 µM substrate, 20 nM FAP, assay buffer (50 mM Tris, 100 mM NaCl, 1 mM EDTA, pH 7.4) and tested compound (serial dilution from 10^-6 to 10^-12) in a total volume of 50 µL.

U-87 tumor = test: Near-infrared fluorescence imaging of U-87 tumor bearing mice; format: in vivo; settings: 2 nmol intravenous
Source text: Six-week-old male Balb/c nu/nu-specific and opportunistic pathogen-tree (SOPF) mice were housed in individually ventilated cages, with 4 mice per cage. Upon arrival, mice were acclimated for 1 week, with access to food and water ad libitum. Mice were subcutaneously inoculated on the right shoulder with U-87 or HT-1080.hFAP cells (1 × 10^6 cells). Xenografts were allowed to grow until they reached an appropriate size at the start of the studies. All animal experiments were approved by the Animal Welfare Committee of the Erasmus MC and were conducted in agreement with institutional guidelines (license number: AVD101002017867).
Evaluation of targeting performance of eFAP-17 in near-infrared fluorescence imaging of U-87 tumor bearing mice after intravenous injection of 2 nmol of the probe are given in Figure 9 showing A) NIRF imaging of U-87 tumor bearing mice at 1 h after intravenous injection of 2 nmol of CW800 (left, negative control) or eFAP-17 (right) and B) image of excised tumors 2.5 h post administration of CW800 (left) or eFAP-17 (right).

| Molecule | LogD7.4 [1] | IC50 (FAP) | further results |
| --- | --- | --- | --- |
| COc1cc2cc(c1Cl)N(C)C(=O)C[C@H](OC(=O)[C@H](C)N(C)C(=O)CCS)[C@]1(C)O[C@H]1[C@H](C)[C@@H]1C[C@@](O)(NC(=O)O1)[C@H](OC)/C=C/C=C(\C)C2 [DM1, Mertansine] |  |  | cell viability (FAP^+ U-87 cells): 40% |
| N#C[C@@H]1CC(F)(F)CN1C(=O)CNC(=O)c1ccnc2c(OCCCNC(=O)CCC(C(=O)O)N3CCN(CC(=O)O)CCN(CC(=O)O)CCN(CC(=O)O)CC3)cccc12 (stereo partly drawn) [eFAP-8, 2,2',2"-(10-(1-Carboxy-4-((3-((4-((2-((S)-2-cyano-4,4-difluoropyrrolidin-1-yl)-2-oxoethyl)carbamoyl)quinolin-8-yl)oxy)propyl)amino)-4-oxobutyl)-1,4,7,10-tetraazacyclododecane-1,4,7-triyl)triacetic acid] | -3.58 ± 0.09 | 1.7 ± 0.5 nM |  |
| N#C[C@@H]1CC(F)(F)CN1C(=O)CNC(=O)c1ccnc2c(OCCCNC(=O)C3CCC(CNC(=O)CN4CCN(CC(=O)O)CCN(CC(=O)O)CCN(CC(=O)O)CC4)CC3)cccc12 (stereo partly drawn) [eFAP-9, 2,2',2"-(10-(2-(((4-((3-((4-((2-((S)-2-Cyano-4,4-difluoropyrrolidin-1-yl)-2-oxoethyl)carbamoyl)quinolin-8-yl)oxy)propyl)carbamoyl)cyclohexyl)methyl)amino)-2-oxoethyl)-1,4,7,10-tetraazacyclododecane-1,4,7-triyl)triacetic acid] | -3.47 ± 0.07 | 3.6 ± 2.3 nM |  |
| N#C[C@@H]1CC(F)(F)CN1C(=O)CNC(=O)c1ccnc2c(OCCCNC(=O)CN3CCC(NC(=O)CN4CCN(CC(=O)O)CCN(CC(=O)O)CCN(CC(=O)O)CC4)CC3)cccc12 [eFAP-10, (S)-2,2',2"-(10-(2-((1-(2-((3-((4-((2-(2-Cyano-4,4-difluoropyrrolidin-1-yl)-2-oxoethyl)carbamoyl)quinolin-8-yl)oxy)propyl)amino)-2-oxoethyl)piperidin-4-yl)amino)-2-oxoethyl)-1,4,7,10-tetraazacyclododecane-1,4,7-triyl)triacetic acid] | -3.64 ± 0.02 |  |  |
| N#C[C@@H]1CC(F)(F)CN1C(=O)CNC(=O)c1ccnc2c(OCCCNC(=O)COCC(=O)Nc3ccc(CNC(=O)CN4CCN(CC(=O)O)CCN(CC(=O)O)CCN(CC(=O)O)CC4)cc3)cccc12 [eFAP-11, (S)-2,2',2"-(10-(2-((4-(2-(2-((3-((4-((2-(2-Cyano-4,4-difluoropyrrolidin-1-yl)-2-oxoethyl)carbamoyl)quinolin-8-yl)oxy)propyl)amino)-2-oxoethoxy)acetamido)benzyl)amino)-2-oxoethyl)-1,4,7,10-tetraazacyclododecane-1,4,7-triyl)triacetic acid] | -3.34 ± 0.07 | 1.8 ± 0.8 nM |  |
| N#C[C@@H]1CC(F)(F)CN1C(=O)CNC(=O)c1ccnc2c(OCCCNC(=O)CN3CCN(C(=O)CN4CCN(CC(=O)O)CCN(CC(=O)O)CCN(CC(=O)O)CC4)CC3)cccc12 [eFAP-12, (S)-2,2',2"-(10-(2-(4-(2-((3-((4-((2-(2-Cyano-4,4-difluoropyrrolidin-l-yl)-2-oxoethyl)carbamoyl)quinolin-8-yl)oxy)propyl)amino)-2-oxoethyl)piperazin-1-yl)-2-oxoethyl)-1,4,7,10-tetraazacyclododecane-1,4,7-triyl)triacetic acid] | -3.72 ± 0.08 |  |  |
| N#C[C@@H]1CC(F)(F)CN1C(=O)CNC(=O)c1ccnc2c(OCCCNC(=O)CN3CCN(CCNC(=O)CN4CCN(CC(=O)O)CCN(CC(=O)O)CCN(CC(=O)O)CC4)CC3)cccc12 [eFAP-13, (S)-2,2',2"-(10-(2-((2-(4-(2-((3-((4-((2-(2-Cyano-4,4-difluoropyrrolidin-1-yl)-2-oxoethyl)carbamoyl)quinolin-8-yl)oxy)propyl)amino)-2-oxoethyl)piperazin-1-yl)ethyl)amino)-2-oxoethyl)-1,4,7,10-tetraazacyclododecane-1,4,7-triyl)triacetic acid] | -3.28 ± 0.15 | 1.7 ± 0.5 nM |  |
| CC1(C)C(/C=C/C2=C(Oc3ccc(S(=O)(=O)O)cc3)C(=C/C=C3/N(CCCCCC(=O)NCCCOc4cccc5c(C(=O)NCC(=O)N6CC(F)(F)C[C@H]6C#N)ccnc45)c4ccc(S(=O)(=O)O)cc4C3(C)C)/CCC2)=[N+](CCCCS(=O)(=O)[O-])c2ccc(S(=O)(=O)O)cc21 [eFAP-17, 4-(2-((E)-2-((E)-3-(2-((E)-1-(6-((3-((4-((2-((S)-2-Cyano-4,4-difluoropyrrolidin-1-yl)-2-oxoethyl)carbamoyl)quinolin-8-yl)oxy)propyl)amino)-6-oxohexyl)-3,3-dimethyl-5-sulfoindolin-2-ylidene)ethylidene)-2-(4-sulfophenoxy)cyclohex-1-en-1-yl)vinyl)-3,3-dimethyl-5-sulfo-3H-indol-1-ium-1-yl)butane-1-sulfonate] |  | 5.6 ± 1.6 nM | accumulation in healthy tissues (U-87 tumor; NIRF imaging): low accumulation in healthy tissues; uptake in the FAP overexpressing tumor (U-87 tumor; NIRF imaging at 1 h, excised tumors 2.5 h): high uptake in the FAP overexpressing tumor |
| (1^4S,1^6S,3^2S,3^3S,2R,4S,10E,12E,14R)-8^6-chloro-1^4-hydroxy-8^5,14-dimethoxy-3^3,2,7,10-tetramethyl-1^2,6-dioxo-7-aza-1(6,4)-oxazinana-3(2,3)-oxirana-8(1,3)-benzenacyclotetradecaphane-10,12-dien-4-yl N-(3-((3-((3-((4-((2-((S)-2-cyano-4,4-difluoropyrrolidin-1-yl)-2-oxoethyl)carbamoyl)quinolin-8-yl)oxy)propyl)amino)-3-oxopropyl)disulfaneyl)propanoyl)-N-methyl-L-alaninate [eFAP-18] |  |  | cell viability (FAP^+ U-87 cells): approximately 25% |

— EP4342890A1, “PLATFORM AND SCAFFOLD FOR FAP TARGETING AGENTS” (Erasmus University Rotterdam Medical Center, priority 2022, dated 2024)
